Cc1n[nH]c(=S)s1
solubility (mole fraction)
Settings	283.15 K	288.15 K	293.15 K	298.15 K	303.15 K	308.15 K	313.15 K	318.15 K	323.15 K
in ethanol	0.0105	0.0131	0.0156	0.0184	0.0219	0.0249	0.0297	0.0342	0.04
in ethyl acetate	0.0152	0.0173	0.0197	0.0221	0.0244	0.0272	0.0307	0.0338	0.038
in ethyl formate	0.00842	0.01	0.0114	0.0134	0.0151	0.0176	0.0202	0.0227	0.0257
in isobutanol	0.00538	0.00689	0.00881	0.0112	0.0143	0.0172	0.0216	0.0271	0.0319
in isopropanol	0.00763	0.00943	0.0115	0.0143	0.0179	0.0215	0.0258	0.0314	0.0374
in methanol	0.0104	0.0129	0.0153	0.018	0.0213	0.0246	0.0292	0.0337	0.0396
in methyl acetate	0.0167	0.0189	0.021	0.0234	0.0257	0.0284	0.0313	0.0342	0.0382
in n-butanol	0.00723	0.00904	0.0109	0.0136	0.0164	0.0194	0.0239	0.0287	0.0333
in n-butyl acetate	0.0135	0.0153	0.0172	0.0194	0.022	0.0246	0.0274	0.0304	0.0336
in n-pentyl acetate	0.0117	0.0137	0.0157	0.0178	0.0203	0.0229	0.0261	0.0289	0.0334
in n-propanol	0.0097	0.0119	0.0145	0.0171	0.0206	0.0243	0.0288	0.033	0.0389
in n-propyl acetate	0.0146	0.0163	0.0187	0.0213	0.0237	0.0266	0.0301	0.033	0.0368
